Here are results for four compounds from patent US4067982A, “Aryl-substituted piperazinyl-alkylamino-uracils, -uracil ethers and -uracil thioethers as therapeutics” (priority 1976, dated 1978).

Broadly, the LD50 is the dose at which mortality reaches 50%.

The test system of data set [1] is mouse. The data set can be described thus: Prolongation of sleep induced by hexobarbital, mouse. The format is in vivo. The note with it: ip; mouse, 15 mg/kg i.p.; 75 mg/kg hexobarbital; vs controls; read-out: % prolongation of sleep induced by hexobarbital by 15 mg/kg i.p.
Experimental: d = Percent prolongation of the duration of sleep of mice, which were administered 75 mg/kg hexobarbital, compared with the sleep duration of controls.
The test system of data set [2] is mouse. The data set can be described thus: Analgesic effect, thermal stimulation of the tail of the mouse. The format is in vivo. The conditions noted are these: oral, 25% retardation, read-out: Retardation of the defense reaction upon thermal stimulation of the tail of the mouse by 25%. From the text: The analgesic effect was thereby determined as the delay in the reaction upon thermal stimulation of the tail of the mouse.

Data set [3] deals with blood pressure of the narcotized rat. The data set can be described thus: Lowering of the blood pressure, narcotized rat. More on the design: unit not given here. The conditions noted are these: 30% lowering. The format is in vivo.
Data set [4] concerns blood pressure increasing effect of adrenaline. The data set can be described thus: Inhibition of the pressor effect of adrenaline, despinalized rat. The format is in vivo. The note with it: iv, 0.001 mg/kg i.v. adrenaline, read-out: 50% inhibition of the press. effect after i.v. administration of adrenaline with.
Data set [5] deals with mouse. The data set can be described thus: Inhibition of the motility in the tread wheel, mouse. The conditions noted are these: mouse, 5 mg/kg d-amphetamine-sulfate, 180 minutes. The format is in vivo.
Data set [6] has as its system blood pressure increasing effect of noradrenaline. The data set can be described thus: Inhibition of the pressor effect of noradrenaline, despinalized rat. The format is in vivo. The conditions noted are these: iv, 0.001 mg/kg i.v. noradrenaline, read-out: 50% inhibition of the press. effect after i.v. administration of noradrenaline with.
The subject of another data set is patients. Briefly: Clinical test, compatibility and sensory functions in patients. The format is in vivo, human. The conditions noted are these: two female and three male patients; 10, 20, 40 and 60 mg oral. On the procedure: (§1) Clinical tests were conducted with the 1,3-dimethyl-4-(γ-[4(o-methoxyphenyl)-piperazinyl-(1)]-propylamino)- uracil on two female and three male patients, with doses of 10, 20, 40 and 60 mg orally administered.

The test system of data set [7] is blood pressure of the narcotized cat. Briefly: Lowering of the blood pressure, narcotized cat. The format is in vivo. The note with it: Felis catus, iv; for ED30: 30% lowering; for ED50: 50% lowering.
Data set [8] concerns mouse. The data set can be described thus: PD50, rotating rod, mouse. The format is in vivo. The conditions noted are these: ip; mouse, i.p.; dose at which an average of 50% of the mice fall from a rotating rod; read-out: PD50. From the text:
The centrally inhibiting effect of the piperazinyl uracils of the invention in the mouse are apparent from Table IV. […] The selective action of the compounds of the invention on the central blood pressure mechanism can be used advantageously in human therapy in the treatment of hypertonic diseases.
a = Dose, at which an average of 50% of the mice fall from a rotating rod.

The subject of data set [9] is mouse. Briefly: SD50, sedation symptoms, mouse. The format is in vivo. The conditions noted are these: mouse, oral; dose at which 50% show inhibition of spontaneous motility, sedation, muscle relaxation, loss of gripping; read-out: SD50 (the source's name).
Text: b = Dose, at which at an average 50% of the mice show the following symptoms: inhibition of the spontaneous motility, sadation, muscle relaxation, loss of gripping and holding ability on a horizontal wire net.
Data set [10] has as its system systolic and diastolic blood pressure. Briefly: Clinical test, blood pressure in patients. The format is in vivo, human. On the procedure:
as §1
Attached Diagrams 1 and 2 show the changes of the blood pressure under the effect of various doses of 1,3-dimethyl-4-(γ-[4-(o-methoxyphenyl)-piperazinyl-(1)]-propylamino)-uracil. […] Diagram 2shows the changes of the diastolic blood pressure with the same doses of the uracil compound at an average starting diastolic blood pressure (RRd) of 95.3 mm Hg plotted against the dose of the uracil compound.

The nature of a further data set: in vivo. The note with it: mouse.
Another data set can be described thus: Solubility. The format is physicochemical.
The test system of data set [11] is carotid sinus relaxation reflex of the narcotized cat. The data set can be described thus: Inhibition of the carotid sinus reflex, narcotized cat. The format is in vivo. The conditions noted are these: Felis catus, iv; for ED30: 30% inhibition; for ED50: 50% inhibition.
Data set [12] has as its system histamine spasm of the isolated small intestine of the guinea pig. Briefly: Antihistamine effect, histamine spasm of isolated small intestine.
A further data set in a line: Hygroscopicity. The format is physicochemical. The note with it: solid product.
The subject of data set [13] is blood pressure, circulatory system and central nervous system. The conditions noted are these: recognized; cited from earlier work.

Molecules are shown by their SMILES.

Turning to `COc1ccccc1N1CCN(CCCNc2cc(=O)n(C)c(=O)n2C)CC1` [Example 4, 1,3-Dimethyl-4-(γ-[4-(o-methoxyphenyl)piperazinyl-(1)]-propylamino)-uracil], the change in vivo at 15 mg/kg with mouse [1] came out at 71%. For the same compound, the ED25 in the data set on mouse [2] stood at 2.4 mg/kg. Further, the “lowering of the blood pressure by 30% by” value in data set [3] came to 0.71. The ED50 amounted to 0.36 mg/kg in data set [4]; 1.9 mg/kg in [6]; 0.65 mg/kg in data set [7]; 52 mg/kg in the data set on mouse [8]; 100 mg/kg in the data set with mouse [9]; 0.16 mg/kg in data set [11]. Further, the inhibition in vivo at 25 mg/kg in the data set on mouse [5] (ip, 3 h, 25 mg/kg i.p., read-out: % Inhibition of the motility in the tread wheel by 25 mg/kg i.p.) is 36%. Also, the compatibility entry with patients is given as “excellent compatibility”. In the data set on patients, the “effect on perception and other sensory functions” value is “no adverse effect on perception and other sensory functions”. In addition, the ED30 in data set [7] was found to be 0.14 mg/kg; in data set [11], 0.03 mg/kg. Further, the “dose response of blood pressure lowering (Diagrams 1 and 2)” value in data set [10] (doses 0 to 60 mg, average starting RRs 171.9 mm Hg, RRd 95.3 mm Hg) is reported as “the blood pressure is progressively lowered in response to an increasing dose of the uracil compound”. Also, the “difference in the effect of a dose of 20 mg and a dose of 40 mg” value in data set [10] (patients, 20 mg vs 40 mg) is given as “statistically confirmed”. Further, the “lowering of the systolic and diastolic blood pressure” value in [10] (two female and three male patients, 10, 20, 40 and 60 mg oral) is “statistically significant lowering of the systolic and diastolic blood pressure”. The LD50 in “in vivo” is 400 mg/kg. For the same compound, in “Solubility”, the “solubility in aqueous acetone” value was “readily soluble in aqueous acetone”.

In the case of `Cc1ccccc1N1CCN(CCCNc2cc(=O)n(C)c(=O)n2C)CC1` [Example 12, 1,3-Dimethyl-4-(γ-[4-(o-tolyl)-piperazinyl(1)]-propylamino)-uracil], the change in vivo at 15 mg/kg in the data set with mouse [1] is 49%. Also, the ED25 with mouse [2] is 6.5 mg/kg. Further, in [3], the “lowering of the blood pressure by 30% by” value stood at 1.0. Moreover, the ED50 in [4] was determined as 0.45 mg/kg; in data set [6], 2.5 mg/kg; in [7], 2.4 mg/kg; in the data set with mouse [8], 26 mg/kg; in the data set with mouse [9], 87 mg/kg. In addition, in the data set with mouse [5] (12 mg/kg i.p.), the “% Inhibition of the motility in the tread wheel by 12 mg/kg i.p.” value stood at 42%. For the same compound, the “50% inhibition of the histamine spasm of the isolated small intestine of the guinea pig” value in data set [12] is 3e-08 g/mL. In data set [7], this compound had an ED30 of 0.41 mg/kg. Also, in “in vivo”, the LD50 was 70 mg/kg.

`COc1ccccc1N1CCN(CCCNc2c(N=O)c(=O)n(C)c(=O)n2C)CC1` [Example 19, 1,3-Dimethyl-4-(γ-[4-(o-methoxyphenyl)-piperazinyl-(1)]-propylamino)-5-nitroso-uracil]: the hygroscopicity result in the data set “Hygroscopicity” is listed as “hygroscopic”.

Turning to `Cc1ccc(N(CC2=NCCN2)c2cccc(O)c2)cc1` [Phentolamine, 2-[N'-p-tolyl-N'-(m-hydroxyphenyl)-aminomethyl]-2-imidiozoline, reference compound], the “lowering of the blood pressure by 30% by” value in data set [3] is reported as 0.63. The ED50 in data set [4] amounted to 0.047 mg/kg; in data set [6], 0.18 mg/kg; in data set [7], 0.7 mg/kg; in [11], 0.5 mg/kg. Also, in data set [13], the mechanism of phentolamine result was “specifically inhibiting the stimulating effect of adrenaline and noradrenaline, typical alpha-blocking agent”. Besides, the ED30 in data set [7] and in data set [11] was 0.1 mg/kg in each case.
